Source: US20040157738A1, “Novel oxygen containing fused cyclic derivatives and herbicidal, desiccant and defoliate compositions containing them” (ISHIHARA SANGYO KAISHA, LTD., priority 2003, published 2004)

Key:
Type in all cases: in vivo
[1] = system: japanese bulrush (Scirpus juncoides: SCPJO); experiment: Test Example 3: water application herbicidal activity, paddy (growth controlling degree); conditions: rate 63 g a.i./ha, water application under submerged condition, paddy pot, japanese bulrush at 0.5 leaf stage
Description: (§1) Paddy field soil was put into a {fraction (1/1,000,000)} ha pot, and seeds of barnyardgrass (Echinochloa oryzicola: ECHOR) and japanese bulrush (Scirpus juncoides: SCPJO) were sown and slightly covered with soil. Then the pot was left to stand still in a greenhouse in a state where the depth of flooding water was from 0.5 to 1 cm, and one day later, tubers of japanese ribbon wapato (Sagittaria pygmaea: SAGPY) were planted. Thereafter, the depth of flooding water was maintained at a level of from 3 to 4 cm, and when barnyardgrass and japanese bulrush reached a 0.5 leaf stage, an aqueous diluted solution of a wettable powder or emulsifiable concentrate having the compound of the present invention formulated in accordance with a usual formulation method, was uniformly applied under submerged condition by a pipette so that the dose of the active ingredient would be at a predetermined level. On the other hand, paddy filed soil was put into a {fraction (1/1,000,000)} ha pot and puddled and leveled, and the depth of flooding water was from 3 to 4 cm. One day later, rice (Oryza sativa L.: ORYSA) of 2 leaf stage was transplanted in a depth of 3 cm. On the 4th day after the transplantation, the compound of the present invention was applied in the same manner as described above. On the 14th day after the application of the herbicide, the growth of barnyardgrass, japanese burlush and japanese ribbon wapato was visually observed and on the 21st day after the application of the herbicide, the growth of rice was visually observed, and the herbicidal effects were evaluated by growth controlling degrees (%) ranging from 0 (equivalent to the untreated control) to 100 (complete kill), whereby the results shown in Table 13, were obtained. Compound Nos. in Table 13 correspond to Compound Nos. in Table 1 to 7 given hereinbefore.

[2] = system: rice (Oryza sativa L.: ORYSA); experiment: as above; conditions: rate 63 g a.i./ha, paddy pot, rice of 2 leaf stage transplanted, treated on the 4th day after transplantation
Description: as §1

[3] = system: japanese ribbon wapato (Sagittaria pygmaea: SAGPY); experiment: as above; conditions: rate 63 g a.i./ha; water application under submerged condition, paddy pot; tubers of japanese ribbon wapato planted
Description: as §1

[4] = system: barnyardgrass (Echinochloa oryzicola: ECHOR); experiment: as above; conditions: rate 63 g a.i./ha, water application under submerged condition, paddy pot, barnyardgrass at 0.5 leaf stage
Description: as §1

[5] = system: prickly sida (Sida spinosa L.), SIDSP; experiment: Test Example 2: post-emergence (foliage treatment) herbicidal activity (growth controlling degree); conditions: 0.3-0.5 leaf stage
Description: (§2) Upland field soil was put into a 1/170,000 ha pot, and seeds of various plants were sown. Then, when the plants reached predetermined leaf stages [I. barnyardgrass (Echinochloa crus-galli L.), ECHCG: 1.8-2.4 leaf stage, 2. crabgrass (Digitaria sanguinalis L.), DIGSA: 1.5-2.2 leaf stage, 3. green foxtail (Setaria viridis L.), SETVI: 1.7-2.5 leaf stage, 4. redroot pigweed (Amaranthus retroflexus L.), AMARE: 0.1-0.3 leaf stage, 5. prickly sida (Sida spinosa L.), SIDSP: 0.3-0.5 leaf stage, 6. velvetleaf (Abutilon theophrasti), ABUTH: 0.3-0.4 leaf stage, 7. common cocklebur (Xanthium strumarium L.), XANST: 0.2-0.6 leaf stage, 8. rice (Oryza sativa L.), ORYSA: 1.6-2.2 leaf stage, 9. wheat (Triticum aestivum L.), TRZAX: 2.8 leaf stage, 10. corn (Zea mays L.), ZEAMX: 2.2-2.5 leaf stage, 11. soybean (Glycine max Merr.), GLXMA: 0.2-0.3 leaf stage], a wettable powder or emulsifiable concentrate having the compound of the present invention formulated in accordance with a usual formulation method, was weighed so that the active ingredient would be a predetermined amount, and diluted with water in an amount of 500 L/ha. To the diluted solution, 0.1%(v/v) of an agricultural spreader was added. The herbicide adjusted was applied by a small size sprayer for foliage treatment. On the […] day after the application of the herbicide, the growth of the respective plants was visually observed, and the herbicidal effects were evaluated by growth controlling degrees (%) ranging from 0 (equivalent to the untreated control) to 100 (complete kill), whereby the results shown in Table 12, were obtained. Compound Nos. in Table 12 correspond to Compound Nos. in Table 1 to 7 given hereinbefore.

[6] = system: barnyardgrass (Echinochloa crus-galli L.), ECHCG; experiment: as above; conditions: 1.8-2.4 leaf stage
Description: as §2

[7] = system: green foxtail (Setaria viridis L.), SETVI; experiment: as above; conditions: 1.7-2.5 leaf stage
Description: as §2

[8] = system: crabgrass (Digitaria sanguinalis L.), DIGSA; experiment: as above; conditions: 1.5-2.2 leaf stage
Description: as §2

[9] = system: velvetleaf (Abutilon theophrasti), ABUTH; experiment: as above; conditions: 0.3-0.4 leaf stage
Description: as §2

[10] = system: soybean (Glycine max Merr.), GLXMA; experiment: as above; conditions: 0.2-0.3 leaf stage
Description: as §2

[11] = system: corn (Zea mays L.), ZEAMX; experiment: as above; conditions: 2.2-2.5 leaf stage
Description: as §2

[12] = system: rice (Oryza sativa L.), ORYSA; experiment: as above; conditions: 1.6-2.2 leaf stage
Description: as §2

[13] = system: redroot pigweed (Amaranthus retroflexus L.), AMARE; experiment: as above; conditions: 0.1-0.3 leaf stage
Description: as §2

[14] = system: common cocklebur (Xanthium strumarium L.), XANST; experiment: as above; conditions: Xanthium strumarium, 504 h, 31 g a.i./ha, 0.2-0.6 leaf stage
Description: as §2

[15] = system: barnyardgrass (Echinochloa crus-galli L.): ECHCC; experiment: Test Example 1: pre-emergence herbicidal activity (growth controlling degree); conditions: 500 g a.i./ha, 20th to 21st day after application
Description: (§3) Upland field soil was put into a 1/170,000 ha pot, and seeds of various plants [1. barnyardgrass (Echinochloa crus-galli L.): ECHCC, 2. crabgrass (Digitaria sanguinalis L.): DIGSA, 3. green foxtail (Setaria viridis L.): SETVI, 4. redroot pigweed (Amaranthus retroflexus L.): AMARE, 5. prickly sida (Sida spinosa L.): SIDSP, 6. velvetleaf (Abutilon theophrasti): ABUTH, 7. common cocklebur (Xanthium strumarium L.): XANST, 8. rice (Oryza sativa L.): ORYSA, 9. wheat (Triticum aestivum L.): TRZAX, 10. corn (Zea mays L.): ZEAMX, 11. soybean (Glycine max Merr.): GLXMA] were sown. Then, one day after the sowing, a wettable powder or emulsifiable concentrate having the compound of the present invention formulated in accordance with a usual formulation method, was weighed so that the active ingredient would be a predetermined amount, and diluted with water in an amount of 500 L/ha. The herbicide adjusted was applied by a small size sprayer for pre-emergence treatment. On the 20th to 21st day after the application of the herbicide, the growth of the respective plants was visually observed, and the herbicidal effects were evaluated by growth controlling degrees (%) ranging from 0 (equivalent to the untreated control) to 100 (complete kill), whereby the results shown in Table 11, were obtained. Compound Nos. in Table 11 correspond to Compound Nos. in Table 1 to 7 given hereinbefore.

[16] = system: corn (Zea mays L.): ZEAMX; experiment: as above; conditions: 500 g a.i./ha, 20th to 21st day after application
Description: as §3

[17] = system: crabgrass (Digitaria sanguinalis L.): DIGSA; experiment: as above; conditions: 500 g a.i./ha, 20th to 21st day after application
Description: as §3

[18] = system: velvetleaf (Abutilon theophrasti): ABUTH; experiment: as above; conditions: 500 g a.i./ha, 20th to 21st day after application
Description: as §3

[19] = system: common cocklebur (Xanthium strumarium L.): XANST; experiment: as above; conditions: 500 g a.i./ha, 20th to 21st day after application
Description: as §3

[20] = system: green foxtail (Setaria viridis L.): SETVI; experiment: as above; conditions: 500 g a.i./ha, 20th to 21st day after application
Description: as §3

[21] = system: prickly sida (Sida spinosa L.): SIDSP; experiment: as above; conditions: 500 g a.i./ha, 20th to 21st day after application
Description: as §3

[22] = system: rice (Oryza sativa L.): ORYSA; experiment: as above; conditions: 500 g a.i./ha, 20th to 21st day after application
Description: as §3

[23] = system: redroot pigweed (Amaranthus retroflexus L.): AMARE; experiment: as above; conditions: 500 g a.i./ha, 20th to 21st day after application
Description: as §3

SMILES: Cn1nc(-c2c(F)cc(Cl)c3c2CCC(C)(C)O3)c(Cl)c1OC(F)F [Compound 1-40, 4-chloro-3-(8-chloro-6-fluoro-3,4-dihydro-2,2-dimethyl-2H-1-benzopyran-5-yl)-5-(difluoromethoxy)-1-methyl-1H-pyrazole]
- pest or weed control at 63 g/ha ([1]; Schoenoplectiella juncoides, 336 h): 100%
- pest or weed control at 63 g/ha ([2]; Oryza sativa, 504 h): 35%
- Water Application Herbicidal Activity SAGPY (growth controlling degree) [3]: 95%
- pest or weed control at 63 g/ha ([4]; Echinochloa oryzicola, 336 h): 100%
- pest or weed control at 31 g/ha ([5]; Sida spinosa, 504 h, 31 g a.i./ha): 100%
- pest or weed control at 31 g/ha ([6]; Echinochloa crus-galli, 504 h, 31 g a.i./ha): 100%
- pest or weed control at 31 g/ha ([7]; Setaria viridis, 504 h, 31 g a.i./ha): 100%
- pest or weed control at 31 g/ha ([8]; Digitaria sanguinalis, 504 h, 31 g a.i./ha, read-out: growth controlling degree, DIGSP): 100%
- pest or weed control at 31 g/ha ([9]; Abutilon theophrasti, 504 h, 31 g a.i./ha): 100%
- pest or weed control at 31 g/ha ([10]; Glycine max, 504 h, 31 g a.i./ha): 60%
- plant injury at 31 g/ha ([11]; Zea mays, 504 h, 31 g a.i./ha): 70%
- plant injury at 31 g/ha ([12]; Oryza sativa, 504 h, 31 g a.i./ha): 70%
- growth controlling degree, AMARE ([13]; 31 g a.i./ha): 100%
- pest or weed control at 31 g/ha [14]: 100%

SMILES: CC1CCc2c(c(Cl)cc(F)c2-c2ncc(C(F)(F)F)cc2Cl)O1 (centres unmarked) [Compound 7-4]
- Water Application Herbicidal Activity SCPJO (growth controlling degree) [1]: 90%
- Water Application Herbicidal Activity ORYSA (growth controlling degree) [2]: 0%
- Water Application Herbicidal Activity ECHOR (growth controlling degree) [4]: 70%
- growth controlling degree, SIDSP ([5]; 63 g a.i./ha): 80%
- growth controlling degree, ECHCG ([6]; 63 g a.i./ha): 50%
- growth controlling degree, SETVI ([7]; 63 g a.i./ha): 80%
- growth controlling degree, DIGSP ([8]; 63 g a.i./ha): 50%
- growth controlling degree, ABUTH ([9]; 63 g a.i./ha): 100%
- growth controlling degree, GLXMA ([10]; 63 g a.i./ha): 50%
- growth controlling degree, ZEAMX ([11]; 63 g a.i./ha): 70%
- growth controlling degree, ORYSA ([12]; 63 g a.i./ha): 60%
- growth controlling degree, AMARE ([13]; 63 g a.i./ha): 95%
- growth controlling degree, ECHCG [15]: 70%
- growth controlling degree, ZEAMX [16]: 40%
- growth controlling degree, DIGSP [17]: 100%
- growth controlling degree, ABUTH [18]: 100%
- growth controlling degree, XANST [19]: 10%
- growth controlling degree, SETVI [20]: 100%
- growth controlling degree, SIDSP [21]: 100%
- growth controlling degree, ORYSA [22]: 30%
- growth controlling degree, AMARE [23]: 100%
